Reference: patent publication US20070244097A1 (priority 2003, published 2007)

Molecular target: α7 nAChR subtype (Rattus norvegicus, UniProt Q05941)
Type: binding
Details: read-out: KD (saturation curve, one site model)

α7 nAChR subtype, sequence (Q05941 23-502 limits assumed): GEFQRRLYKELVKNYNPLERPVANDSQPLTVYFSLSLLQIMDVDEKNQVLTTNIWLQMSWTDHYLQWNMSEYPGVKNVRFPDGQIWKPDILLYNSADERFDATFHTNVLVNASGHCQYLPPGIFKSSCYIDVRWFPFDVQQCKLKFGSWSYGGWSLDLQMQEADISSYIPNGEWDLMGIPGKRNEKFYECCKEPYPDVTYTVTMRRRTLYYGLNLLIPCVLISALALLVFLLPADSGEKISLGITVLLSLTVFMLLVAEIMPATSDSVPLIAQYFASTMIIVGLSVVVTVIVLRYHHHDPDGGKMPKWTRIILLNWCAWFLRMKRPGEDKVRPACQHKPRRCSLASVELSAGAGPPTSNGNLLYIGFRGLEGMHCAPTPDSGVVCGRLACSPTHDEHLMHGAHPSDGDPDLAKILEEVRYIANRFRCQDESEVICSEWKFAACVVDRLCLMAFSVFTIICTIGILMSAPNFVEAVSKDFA

## ^125I-α-Bungarotoxin [^125I-α-BTX]
  Kd: 1.67 nM
